Test results: PubChem BioAssay AID248 (DTP/NCI, 2004)
Inconclusive results and toxic doses are left out. Rule as the data show it: active = T/C of 150% or more; inactive = T/C below 125%.

Tested on: L1210 leukemia ip in BDF1 mice, survival T/C
Assay: NCI In Vivo Anticancer Drug Screen. Data for tumor model L1210 Leukemia (intraperitoneal) in B6D2F1 (BDF1) mice
Settings: endpoint: mean survival time, higher = longer survival
How it was run: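 Transplantable tumor model; survival measured in treated vs vehicle control mice. Value = treated/control.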

[1] = dose: 100.0 mg/kg/injection, schedule: Q01DX001 (ip), vehicle: carboxymethylcellulose (CMC)
[2] = dose: 100.0 mg/kg/injection, schedule: Q04DX003 (ip), vehicle: saline with Tween-80
[3] = dose: 200.0 mg/kg/injection, schedule: Q01DX001 (ip), vehicle: carboxymethylcellulose (CMC)
[4] = dose: 200.0 mg/kg/injection, schedule: Q04DX003 (ip), vehicle: saline with Tween-80
[5] = dose: 400.0 mg/kg/injection, schedule: Q01DX001 (ip), vehicle: carboxymethylcellulose (CMC)
[6] = dose: 400.0 mg/kg/injection, schedule: Q04DX003 (ip), vehicle: saline with Tween-80
[7] = dose: 50.0 mg/kg/injection, schedule: Q01DX009 (ip), vehicle: Klucel (hydroxypropylcellulose) (HPC)
[8] = dose: 100.0 mg/kg/injection, schedule: Q01DX009 (ip), vehicle: Klucel (hydroxypropylcellulose) (HPC)
[9] = dose: 200.0 mg/kg/injection, schedule: Q01DX009 (ip), vehicle: Klucel (hydroxypropylcellulose) (HPC)
[10] = dose: 100.0 mg/kg/injection, schedule: Q01DX009 (ip), vehicle: saline
[11] = dose: 200.0 mg/kg/injection, schedule: Q01DX009 (ip), vehicle: saline
[12] = dose: 400.0 mg/kg/injection, schedule: Q01DX009 (ip), vehicle: saline
[13] = dose: 100.0 mg/kg/injection, schedule: Q04DX002 (ip), vehicle: Klucel (hydroxypropylcellulose) (HPC)
[14] = dose: 100.0 mg/kg/injection, schedule: Q04DX003 (ip), vehicle: Klucel (hydroxypropylcellulose) (HPC)
[15] = dose: 200.0 mg/kg/injection, schedule: Q04DX003 (ip), vehicle: Klucel (hydroxypropylcellulose) (HPC)

Measured: T/C

CCCCCc1cc(O)c(CCCC)c(O)c1
inactive: dose: 6.25 mg/kg/injection, schedule: Q04DX002 (ip), vehicle: other 97 % of control | dose: 12.5 mg/kg/injection, schedule: Q04DX002 (ip), vehicle: other 110 % of control | dose: 25.0 mg/kg/injection, schedule: Q04DX002 (ip), vehicle: other 93 % of control | dose: 50.0 mg/kg/injection, schedule: Q04DX002 (ip), vehicle: other 93 % of control

CCSC(SCC)C1OC(C)(C)OC1C1COC(C)(C)O1 (stereo unspecified)
inactive: [1] 103 % of control | [2] 96 % of control | [3] 103 % of control | [4] 94 % of control | [5] 103 % of control | [6] 91 % of control

O=C(O)c1cscc1-c1cccc2ccccc12
inactive: [2] 91 % of control | [4] 98 % of control

Clc1ccc(C=NCCN=Cc2ccc(Cl)c(Cl)c2)cc1Cl
inactive: dose: 25.0 mg/kg/injection, schedule: Q01DX009 (ip), vehicle: saline with Tween-80 92 % of control | dose: 50.0 mg/kg/injection, schedule: Q01DX009 (ip), vehicle: saline with Tween-80 90 % of control | dose: 100.0 mg/kg/injection, schedule: Q01DX009 (ip), vehicle: saline with Tween-80 103 % of control | [2] 91 % of control | dose: 200.0 mg/kg/injection, schedule: Q01DX009 (ip), vehicle: saline with Tween-80 98 % of control | [4] 91 % of control | dose: 400.0 mg/kg/injection, schedule: Q01DX009 (ip), vehicle: saline with Tween-80 101 % of control | [6] 95 % of control

COc1ccc([N+](=O)[O-])cc1NC(=O)Nc1cccc(C(=O)O)c1
inactive: [7] 101 % of control | [8] 96 % of control | [9] 86 % of control

O=C(Nc1cccc(Cl)c1)Oc1ccc2ccccc2c1
inactive: [10] 90 % of control | dose: 100.0 mg/kg/injection, schedule: Q04DX004 (ip), vehicle: saline 104 % of control | [11] 101 % of control | dose: 200.0 mg/kg/injection, schedule: Q04DX004 (ip), vehicle: saline 90 % of control | [12] 101 % of control | dose: 400.0 mg/kg/injection, schedule: Q04DX004 (ip), vehicle: saline 98 % of control

CC(C(CC(=O)c1ccccc1)c1ccccc1)[N+](=O)[O-] (stereo unspecified)
inactive: dose: 100.0 mg/kg/injection, schedule: Q01DX001 (ip), vehicle: Klucel (hydroxypropylcellulose) (HPC) 124 % of control | [2] 98 % of control | dose: 200.0 mg/kg/injection, schedule: Q01DX001 (ip), vehicle: Klucel (hydroxypropylcellulose) (HPC) 97 % of control | [4] 97 % of control | dose: 400.0 mg/kg/injection, schedule: Q01DX001 (ip), vehicle: Klucel (hydroxypropylcellulose) (HPC) 96 % of control | [6] 92 % of control

CN(C)CCCC1(O)c2ccccc2Sc2cc(Cl)ccc21 (stereo unspecified)
inactive: dose: 25.0 mg/kg/injection, schedule: Q01DX009 (ip), vehicle: Klucel (hydroxypropylcellulose) (HPC) 91 % of control | dose: 25.0 mg/kg/injection, schedule: Q04DX002 (ip), vehicle: Klucel (hydroxypropylcellulose) (HPC) 96 % of control | [7] 91 % of control | dose: 50.0 mg/kg/injection, schedule: Q04DX002 (ip), vehicle: Klucel (hydroxypropylcellulose) (HPC) 99 % of control | [8] 100 % of control | [13] 101 % of control | dose: 150.0 mg/kg/injection, schedule: Q01DX009 (ip), vehicle: Klucel (hydroxypropylcellulose) (HPC) 97 % of control | dose: 225.0 mg/kg/injection, schedule: Q01DX009 (ip), vehicle: Klucel (hydroxypropylcellulose) (HPC) 90 % of control

CN(N=O)c1ccc(C=C2c3ccccc3-c3ccccc32)cc1
inactive: dose: 50.0 mg/kg/injection, schedule: Q01DX001 (ip), vehicle: carboxymethylcellulose (CMC) 102 % of control | [1] 106 % of control | [3] 96 % of control | [5] 102 % of control

Cc1cc(=O)oc2cc(O)ccc12
inactive: [14] 100 % of control | [15] 98 % of control

NC(=S)Nc1ccc(Cc2ccc(NC(N)=S)cc2)cc1
inactive: [8] 98 % of control | [9] 91 % of control | dose: 400.0 mg/kg/injection, schedule: Q01DX009 (ip), vehicle: Klucel (hydroxypropylcellulose) (HPC) 88 % of control

CN(C)c1ccc([N+](=O)[O-])cc1[N+](=O)[O-]
inactive: dose: 100.0 mg/kg/injection, schedule: Q01DX001 (ip), vehicle: other 111 % of control | dose: 200.0 mg/kg/injection, schedule: Q01DX001 (ip), vehicle: other 101 % of control

N#CCCCc1ccc(C(=O)O)cc1
inactive: [1] 95 % of control | [3] 100 % of control | [5] 97 % of control

Cc1ccc[n+](CC(=O)c2ccccc2)c1
inactive: dose: 0.19 mg/kg/injection, schedule: Q04DX003 (ip), vehicle: saline 102 % of control | dose: 0.39 mg/kg/injection, schedule: Q01DX009 (ip), vehicle: saline 98 % of control | dose: 0.39 mg/kg/injection, schedule: Q04DX003 (ip), vehicle: saline 98 % of control | dose: 0.78 mg/kg/injection, schedule: Q01DX009 (ip), vehicle: saline 106 % of control | dose: 0.78 mg/kg/injection, schedule: Q04DX003 (ip), vehicle: saline 96 % of control | dose: 1.56 mg/kg/injection, schedule: Q04DX003 (ip), vehicle: saline 98 % of control | dose: 75.0 mg/kg/injection, schedule: Q01DX001 (ip), vehicle: saline 97 % of control | dose: 150.0 mg/kg/injection, schedule: Q01DX001 (ip), vehicle: saline 90 % of control | dose: 300.0 mg/kg/injection, schedule: Q01DX001 (ip), vehicle: saline 88 % of control

c1cnc2[nH]cnc2n1
inactive: [10] 86 % of control | [14] 100 % of control | [11] 109 % of control | [15] 100 % of control | [12] 112 % of control | dose: 400.0 mg/kg/injection, schedule: Q04DX003 (ip), vehicle: Klucel (hydroxypropylcellulose) (HPC) 105 % of control

CCCCCCCCOC(=O)CCCCl
inactive: dose: 100.0 mg/kg/injection, schedule: Q04DX002 (ip), vehicle: saline with Tween-80 107 % of control | dose: 200.0 mg/kg/injection, schedule: Q04DX002 (ip), vehicle: saline with Tween-80 100 % of control | dose: 400.0 mg/kg/injection, schedule: Q04DX002 (ip), vehicle: saline with Tween-80 102 % of control

COc1c(-c2cc(C)nc(NC#N)n2)c(O)c(OC)c2occc12
inactive: [13] 109 % of control | dose: 200.0 mg/kg/injection, schedule: Q04DX002 (ip), vehicle: Klucel (hydroxypropylcellulose) (HPC) 98 % of control | dose: 400.0 mg/kg/injection, schedule: Q04DX002 (ip), vehicle: Klucel (hydroxypropylcellulose) (HPC) 98 % of control

CSc1nc(Cl)c2ncn(C3C=CC(O)C(CO)O3)c2n1 (stereo unspecified)
inactive: dose: 100.0 mg/kg/injection, schedule: Q01DX005 (ip), vehicle: saline 95 % of control | dose: 200.0 mg/kg/injection, schedule: Q01DX005 (ip), vehicle: saline 92 % of control

O=C1CCCC(=O)CCC1
inactive: dose: 50.0 mg/kg/injection, schedule: Q04DX002 (ip), vehicle: saline 93 % of control | dose: 100.0 mg/kg/injection, schedule: Q04DX002 (ip), vehicle: saline 93 % of control | dose: 200.0 mg/kg/injection, schedule: Q04DX002 (ip), vehicle: saline 104 % of control

CCCCCCCCOC(=O)Nc1ccc(S(=O)(=O)NC2CCCCC2)cc1
inactive: [1] 89 % of control | [3] 89 % of control | [5] 94 % of control
